{"source": "paper PMC9866706", "about": "(Toxins, 2022)", "key": {"[1]": {"target": "T1, mα1β1δε nAChR (Mus musculus, UniProt P02716+P04756+P09690+P20782)", "T1 construct": "expressed in transfected cells; host or cells: Xenopus laevis oocytes injected with cRNA", "T1 sequence (P20782 21-493)": "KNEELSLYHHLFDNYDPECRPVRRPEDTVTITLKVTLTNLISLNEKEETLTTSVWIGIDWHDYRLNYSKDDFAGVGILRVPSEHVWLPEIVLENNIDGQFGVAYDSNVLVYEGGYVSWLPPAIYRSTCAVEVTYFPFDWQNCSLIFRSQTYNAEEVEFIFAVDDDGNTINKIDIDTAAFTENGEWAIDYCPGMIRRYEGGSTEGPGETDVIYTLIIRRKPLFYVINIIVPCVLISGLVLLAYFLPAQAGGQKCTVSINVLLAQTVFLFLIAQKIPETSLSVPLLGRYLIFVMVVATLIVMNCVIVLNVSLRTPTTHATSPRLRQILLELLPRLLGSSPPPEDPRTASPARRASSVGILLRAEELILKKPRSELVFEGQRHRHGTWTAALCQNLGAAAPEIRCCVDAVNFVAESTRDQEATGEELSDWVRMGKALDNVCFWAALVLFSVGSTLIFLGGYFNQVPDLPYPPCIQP", "T1 sequence (P04756 21-457)": "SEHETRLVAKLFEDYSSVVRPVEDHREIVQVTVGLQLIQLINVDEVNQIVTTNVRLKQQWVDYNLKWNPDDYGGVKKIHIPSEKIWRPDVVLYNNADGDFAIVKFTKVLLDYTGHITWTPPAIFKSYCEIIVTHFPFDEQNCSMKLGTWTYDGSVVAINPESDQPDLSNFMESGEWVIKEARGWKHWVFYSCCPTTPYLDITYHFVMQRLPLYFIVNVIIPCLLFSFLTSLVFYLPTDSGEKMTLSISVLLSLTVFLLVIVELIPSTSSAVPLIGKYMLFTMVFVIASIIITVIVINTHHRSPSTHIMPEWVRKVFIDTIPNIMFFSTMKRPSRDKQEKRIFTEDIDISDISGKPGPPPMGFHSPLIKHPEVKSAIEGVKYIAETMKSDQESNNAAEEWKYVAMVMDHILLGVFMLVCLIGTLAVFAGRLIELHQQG", "T1 sequence (P09690 24-501)": "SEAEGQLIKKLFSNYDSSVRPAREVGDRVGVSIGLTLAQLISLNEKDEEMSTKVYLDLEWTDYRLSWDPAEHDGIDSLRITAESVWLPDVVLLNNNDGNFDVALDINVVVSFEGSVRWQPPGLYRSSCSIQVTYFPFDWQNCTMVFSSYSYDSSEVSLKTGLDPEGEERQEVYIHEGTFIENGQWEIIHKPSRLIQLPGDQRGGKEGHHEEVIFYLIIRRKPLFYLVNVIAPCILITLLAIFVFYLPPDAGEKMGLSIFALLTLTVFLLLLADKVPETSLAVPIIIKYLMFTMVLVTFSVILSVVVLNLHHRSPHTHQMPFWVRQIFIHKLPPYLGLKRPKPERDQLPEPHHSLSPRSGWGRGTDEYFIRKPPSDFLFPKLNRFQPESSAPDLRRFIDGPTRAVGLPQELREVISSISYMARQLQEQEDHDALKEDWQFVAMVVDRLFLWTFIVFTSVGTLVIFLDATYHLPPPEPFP", "T1 sequence (P02716 25-520)": "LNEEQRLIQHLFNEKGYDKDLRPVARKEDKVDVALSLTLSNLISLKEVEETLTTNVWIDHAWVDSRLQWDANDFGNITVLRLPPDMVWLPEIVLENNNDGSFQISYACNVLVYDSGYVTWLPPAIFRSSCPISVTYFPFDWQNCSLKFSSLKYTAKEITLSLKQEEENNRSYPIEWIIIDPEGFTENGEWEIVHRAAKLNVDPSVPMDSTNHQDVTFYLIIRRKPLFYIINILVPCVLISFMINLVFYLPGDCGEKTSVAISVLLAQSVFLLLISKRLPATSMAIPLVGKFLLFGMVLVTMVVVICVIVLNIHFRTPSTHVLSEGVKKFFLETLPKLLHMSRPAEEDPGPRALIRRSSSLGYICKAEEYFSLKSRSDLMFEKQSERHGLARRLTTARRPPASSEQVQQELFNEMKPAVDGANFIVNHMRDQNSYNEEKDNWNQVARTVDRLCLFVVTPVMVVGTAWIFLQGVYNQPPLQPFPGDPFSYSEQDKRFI", "assay": "ACh-evoked currents in Xenopus oocytes (TEVC), mα1β1δε", "format": "cell-based"}, "[2]": {"target": "T2, rα9α10 nAChR (Rattus norvegicus, UniProt P43144+Q9JLB5)", "T2 construct": "expressed in transfected cells; host or cells: Xenopus laevis oocytes injected with cRNA", "T2 sequence (Q9JLB5 25-447)": "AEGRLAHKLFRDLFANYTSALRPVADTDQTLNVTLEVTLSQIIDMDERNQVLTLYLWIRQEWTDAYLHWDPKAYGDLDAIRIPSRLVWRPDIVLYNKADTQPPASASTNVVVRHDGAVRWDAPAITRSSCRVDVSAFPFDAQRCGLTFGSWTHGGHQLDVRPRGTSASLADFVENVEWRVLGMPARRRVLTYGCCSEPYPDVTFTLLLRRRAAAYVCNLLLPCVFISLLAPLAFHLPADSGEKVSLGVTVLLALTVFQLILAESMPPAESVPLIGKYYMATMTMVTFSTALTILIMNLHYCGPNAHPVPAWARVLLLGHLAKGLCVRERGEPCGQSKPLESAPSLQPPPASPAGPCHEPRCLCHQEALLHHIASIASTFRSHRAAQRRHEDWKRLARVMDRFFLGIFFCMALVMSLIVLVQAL", "T2 sequence (P43144 26-479)": "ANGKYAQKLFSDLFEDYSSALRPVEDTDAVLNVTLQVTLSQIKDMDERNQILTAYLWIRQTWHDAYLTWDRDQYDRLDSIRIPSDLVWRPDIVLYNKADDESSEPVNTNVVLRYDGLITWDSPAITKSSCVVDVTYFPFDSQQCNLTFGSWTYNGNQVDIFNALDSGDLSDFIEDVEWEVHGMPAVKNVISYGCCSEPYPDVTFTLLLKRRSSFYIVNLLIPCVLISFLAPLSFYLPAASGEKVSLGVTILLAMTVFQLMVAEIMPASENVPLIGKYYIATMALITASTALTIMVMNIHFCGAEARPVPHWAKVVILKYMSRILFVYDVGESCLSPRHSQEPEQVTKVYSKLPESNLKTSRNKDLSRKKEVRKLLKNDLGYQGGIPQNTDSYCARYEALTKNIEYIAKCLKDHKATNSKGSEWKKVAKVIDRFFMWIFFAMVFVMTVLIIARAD", "assay": "ACh-evoked currents in Xenopus oocytes (TEVC), rα9α10", "format": "cell-based"}, "[3]": {"target": "T3, rα6/α3β4 nAChR (Rattus norvegicus, UniProt P04757+P12392+P43143)", "T3 construct": "expressed in transfected cells; host or cells: Xenopus laevis oocytes injected with cRNA", "assay": "ACh-evoked currents in Xenopus oocytes (TEVC), rα6/α3β4", "format": "cell-based"}, "[4]": {"target": "T4, rα4β4 nAChR (Rattus norvegicus, UniProt P09483+P12392)", "T4 construct": "expressed in transfected cells; host or cells: Xenopus laevis oocytes injected with cRNA", "assay": "ACh-evoked currents in Xenopus oocytes (TEVC), rα4β4", "format": "cell-based"}, "[5]": {"target": "T5, rα2β4 nAChR (Rattus norvegicus, UniProt P12389+P12392)", "T5 construct": "expressed in transfected cells; host or cells: Xenopus laevis oocytes injected with cRNA", "assay": "ACh-evoked currents in Xenopus oocytes (TEVC), rα2β4", "format": "cell-based"}, "[6]": {"target": "T6, rα3β4 nAChR (Rattus norvegicus, UniProt P04757+P12392)", "T6 construct": "expressed in transfected cells; host or cells: Xenopus laevis oocytes injected with cRNA", "T6 sequence (P04757 26-499)": "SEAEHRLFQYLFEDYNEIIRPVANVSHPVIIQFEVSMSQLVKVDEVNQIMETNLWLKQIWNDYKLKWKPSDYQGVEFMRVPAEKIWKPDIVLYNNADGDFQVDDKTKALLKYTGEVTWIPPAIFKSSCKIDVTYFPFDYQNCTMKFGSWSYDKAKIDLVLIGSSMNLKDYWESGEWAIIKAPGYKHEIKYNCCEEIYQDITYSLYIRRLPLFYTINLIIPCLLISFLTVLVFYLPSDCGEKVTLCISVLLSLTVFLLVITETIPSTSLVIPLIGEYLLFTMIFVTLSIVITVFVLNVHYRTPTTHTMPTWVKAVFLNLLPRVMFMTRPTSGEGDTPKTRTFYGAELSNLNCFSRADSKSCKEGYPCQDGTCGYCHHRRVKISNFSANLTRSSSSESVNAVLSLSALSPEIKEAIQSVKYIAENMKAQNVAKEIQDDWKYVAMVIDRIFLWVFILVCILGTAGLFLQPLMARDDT", "T6 sequence (P12392 21-495)": "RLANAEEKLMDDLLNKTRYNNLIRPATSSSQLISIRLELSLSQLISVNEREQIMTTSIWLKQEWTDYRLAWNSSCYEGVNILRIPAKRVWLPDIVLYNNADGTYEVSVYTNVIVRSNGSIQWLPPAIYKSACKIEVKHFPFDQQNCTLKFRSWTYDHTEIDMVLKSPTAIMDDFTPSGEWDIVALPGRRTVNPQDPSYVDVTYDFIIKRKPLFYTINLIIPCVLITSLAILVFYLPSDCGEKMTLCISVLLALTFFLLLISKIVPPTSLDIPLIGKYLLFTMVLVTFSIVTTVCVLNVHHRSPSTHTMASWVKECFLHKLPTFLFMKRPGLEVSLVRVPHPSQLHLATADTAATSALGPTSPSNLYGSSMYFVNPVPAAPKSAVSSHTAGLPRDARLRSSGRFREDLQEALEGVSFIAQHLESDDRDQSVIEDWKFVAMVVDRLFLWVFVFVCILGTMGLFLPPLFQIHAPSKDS", "assay": "ACh-evoked currents in Xenopus oocytes (TEVC), rα3β4", "format": "cell-based"}, "[7]": {"target": "T7, hα7 nAChR (Homo sapiens, UniProt P36544)", "T7 construct": "expressed in transfected cells; host or cells: Xenopus laevis oocytes injected with cRNA", "T7 sequence (P36544 23-502)": "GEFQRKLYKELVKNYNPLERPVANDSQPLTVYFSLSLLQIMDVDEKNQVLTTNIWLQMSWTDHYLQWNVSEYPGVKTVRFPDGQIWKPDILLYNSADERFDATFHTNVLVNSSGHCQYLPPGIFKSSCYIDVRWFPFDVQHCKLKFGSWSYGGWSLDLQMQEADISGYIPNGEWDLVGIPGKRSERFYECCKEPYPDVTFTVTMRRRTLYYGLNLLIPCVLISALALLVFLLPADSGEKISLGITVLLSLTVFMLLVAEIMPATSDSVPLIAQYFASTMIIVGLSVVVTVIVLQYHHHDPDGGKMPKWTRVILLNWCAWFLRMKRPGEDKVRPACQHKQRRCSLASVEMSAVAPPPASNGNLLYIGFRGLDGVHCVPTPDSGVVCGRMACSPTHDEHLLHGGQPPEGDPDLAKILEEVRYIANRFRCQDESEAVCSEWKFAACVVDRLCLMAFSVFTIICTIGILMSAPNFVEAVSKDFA", "assay": "ACh-evoked currents in Xenopus oocytes (TEVC), hα7", "format": "cell-based"}, "[8]": {"target": "T8, rα2β2 nAChR (Rattus norvegicus, UniProt P12389+P12390)", "T8 construct": "expressed in transfected cells; host or cells: Xenopus laevis oocytes injected with cRNA", "assay": "ACh-evoked currents in Xenopus oocytes (TEVC), rα2β2", "format": "cell-based"}, "[9]": {"target": "T9, rα7 nAChR (Rattus norvegicus, UniProt Q05941)", "T9 construct": "expressed in transfected cells; host or cells: Xenopus laevis oocytes injected with cRNA", "T9 sequence (Q05941 23-502)": "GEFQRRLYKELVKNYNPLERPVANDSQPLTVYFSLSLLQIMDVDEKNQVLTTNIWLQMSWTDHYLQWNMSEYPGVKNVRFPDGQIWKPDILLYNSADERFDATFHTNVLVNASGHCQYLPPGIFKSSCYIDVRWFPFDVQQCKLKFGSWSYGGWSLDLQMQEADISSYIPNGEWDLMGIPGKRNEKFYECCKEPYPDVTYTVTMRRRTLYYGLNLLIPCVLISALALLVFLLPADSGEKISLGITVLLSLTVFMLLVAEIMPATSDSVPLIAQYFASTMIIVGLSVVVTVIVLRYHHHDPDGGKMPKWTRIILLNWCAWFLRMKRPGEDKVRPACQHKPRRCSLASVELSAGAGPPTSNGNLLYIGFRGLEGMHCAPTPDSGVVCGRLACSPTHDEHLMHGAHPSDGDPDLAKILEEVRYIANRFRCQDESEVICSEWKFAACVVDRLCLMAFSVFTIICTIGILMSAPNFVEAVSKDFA", "assay": "ACh-evoked currents in Xenopus oocytes (TEVC), rα7", "format": "cell-based"}, "[10]": {"target": "T10, rα4β2 nAChR (Rattus norvegicus, UniProt P09483+P12390)", "T10 construct": "expressed in transfected cells; host or cells: Xenopus laevis oocytes injected with cRNA", "assay": "ACh-evoked currents in Xenopus oocytes (TEVC), rα4β2", "format": "cell-based"}, "[11]": {"target": "T11, rα3β2 nAChR (Rattus norvegicus, UniProt P04757+P12390)", "T11 construct": "expressed in transfected cells; host or cells: Xenopus laevis oocytes injected with cRNA", "assay": "ACh-evoked currents in Xenopus oocytes (TEVC), rα3β2", "format": "cell-based"}, "[12]": {"system": "TRPC1", "set-up": "method as in doi.org/10.1016/j.toxicon.2006.09.030", "details": "ref doi.org/10.1016/j.toxicon.2006.09.030; cited from earlier work"}, "[13]": {"system": "tetrodotoxin-resistant voltage-gated sodium channel", "details": "cited from earlier work"}, "[14]": {"system": "neuronal tetrodotoxin-sensitive voltage-gated sodium channel of adult rat dorsal root ganglion neurons", "details": "cited from earlier work"}, "[15]": {"system": "Nav1.5", "set-up": "method as in earlier work", "details": "ref doi.org/10.1016/j.cub.2014.01.013; doi.org/10.1016/j.toxicon.2006.09.014; cited from earlier work"}, "[16]": {"system": "Nav1.2", "set-up": "method as in earlier work", "details": "ref doi.org/10.1016/j.cub.2014.01.013; doi.org/10.1016/j.toxicon.2006.09.014; cited from earlier work"}, "[17]": {"system": "Nav1.8", "set-up": "method as in earlier work", "details": "ref doi.org/10.1016/j.cub.2014.01.013; doi.org/10.1016/j.toxicon.2006.09.014; cited from earlier work"}, "[18]": {"system": "TRPA1", "set-up": "method as in earlier work", "details": "ref doi.org/10.1016/j.cub.2014.01.013; doi.org/10.1016/j.toxicon.2006.09.014; cited from earlier work"}, "[19]": {"system": "Nav1.7", "set-up": "method as in earlier work", "details": "ref doi.org/10.1016/j.cub.2014.01.013; doi.org/10.1016/j.toxicon.2006.09.014; cited from earlier work"}, "[20]": {"system": "KVAP", "set-up": "method as in doi.org/10.1038/nature01473", "details": "ref doi.org/10.1038/nature01473; cited from earlier work"}}, "note": "“Also recorded” adds a separate entry of the source. Bridges are numbered along the chain shown (N, C = ends). Where no end group is shown, it is not given here.", "data": [{"substance": "GCKKLNSYCTRQHRECCHGLVCRRPDYGIGRGILWKCTRARK (disulfide 2-17, 9-22, 16-37) [Ms11a-3]", "values": [{"measurement": "IC50", "setting": "[1]", "value": 1.21, "unit": "µM"}, {"measurement": "Hill Slope", "setting": "[1]; mean (95% confidence interval)", "value": "1.35 (0.71–1.99)"}, {"measurement": "IC50", "setting": "[2]", "value": 0.202, "unit": "µM"}, {"measurement": "functional antagonism", "setting": "[2]; compared to the muscle and α7 receptors", "value": "highest antagonism; also recorded: effectively blocking the neuronal α9α10 and to a lesser extent muscle nAChR subtypes"}, {"measurement": "Hill Slope", "setting": "[2]; mean (95% confidence interval)", "value": "0.71 (0.52–0.90)"}, {"measurement": "IC50", "setting": "[3]", "value": "> 10", "unit": "µM"}, {"measurement": "IC50", "setting": "[4]", "value": "> 10", "unit": "µM"}, {"measurement": "IC50", "setting": "[5]", "value": "> 10", "unit": "µM"}, {"measurement": "IC50", "setting": "[6]", "value": 5.17, "unit": "µM"}, {"measurement": "Hill Slope", "setting": "[6]; mean (95% confidence interval)", "value": "0.84 (0.67–1.00)"}, {"measurement": "IC50", "setting": "[7]", "value": 8.87, "unit": "µM"}, {"measurement": "Hill Slope", "setting": "[7]; mean (95% confidence interval)", "value": "0.95 (0.30–1.61)"}, {"measurement": "IC50", "setting": "[8]", "value": "> 10", "unit": "µM"}, {"measurement": "IC50", "setting": "[9]", "value": 4.79, "unit": "µM"}, {"measurement": "Hill Slope", "setting": "[9]; mean (95% confidence interval)", "value": "0.99 (0.59–1.40)"}, {"measurement": "functional potency", "setting": "[9]; towards α7 and heteromeric nAChRs", "value": "lowest potency"}, {"measurement": "IC50", "setting": "[10]", "value": "> 10", "unit": "µM"}, {"measurement": "IC50", "setting": "[11]", "value": "> 10", "unit": "µM"}]}, {"substance": "GsMTx-4", "values": [{"measurement": "Target (that was in the corresponding Ref.)", "setting": "[12]", "value": "TRPC1"}]}, {"substance": "HWTX-IV: Haplopelma schmidti toxin, PDB 1MB6", "values": [{"measurement": "No (or weak) effect", "setting": "[13]", "value": "No (or weak) effect"}, {"measurement": "IC50", "setting": "[14]", "value": 0.03, "unit": "µM"}]}, {"substance": "ProTx-I", "values": [{"measurement": "Target (that was in the corresponding Ref.)", "setting": "[15]", "value": "Nav1.5"}, {"measurement": "Target (that was in the corresponding Ref.)", "setting": "[16]", "value": "Nav1.2"}, {"measurement": "Target (that was in the corresponding Ref.)", "setting": "[17]", "value": "Nav1.8"}, {"measurement": "IC50", "setting": "[18]", "value": "0.389 ± 0.077", "unit": "µM"}, {"measurement": "Target (that was in the corresponding Ref.)", "setting": "[19]", "value": "Nav1.7"}]}, {"substance": "VSTx1: Grammostola rosea toxin, PDB 2N1N (ECGKFMWKCKNSNDCCKDLVCSSRWKWCVLASPF; UniProt P60980 30-63, looked up)", "values": [{"measurement": "Target (that was in the corresponding Ref.)", "setting": "[20]", "value": "KVAP"}]}]}
